# Measured values as given in patent US20160331716A1, “MOLECULAR TARGETS FOR HEALING OR TREATING WOUNDS” (UNIVERSITY COLLEGE CARDIFF CONSULTANTS LIMITED, priority 2011, published 2016).
# Assays:
# [1] = test system: HECV cells; assay: ECIS cell adhesion assay, HECV endothelial cells; type: cell-based, human
# Experimental: HaCaT, a human keratinocyte cell line was purchased from the German Cancer Centre, HECV, a human vascular endothelial cells from Interlab, Milan, Italy, DB/DB mice from Harlan UK.
# HaCaT and HECV cells, which were positive for PTPRK, were transfected with anti-PTPRK transgenes by way of electroporation (270 v). After selection with a selection medium (DMEM with 10 ug/ml blasticidin) for 10 days, clones of selected cells were pooled and used for subsequent analysis.
# (§1) Three models of ECIS instrument were used: ECIS 9600 for screening and ECIS1600R and ECIS Z8 for modelling. In all systems, 8W10 arrays were used (Applied Biophysics Inc., Troy, N.Y., USA) (Giaever and Keese 1991, Kees et al 2004). Following treating the array surface with a Cysteine solution (or array stabilization procedure for ECIS Z8), the arrays were incubated with complete medium for 1 hr Electric changes were continuously monitored for up to 24 hrs. In the 9600 system, the monitoring was at fixed […]. In the 1600R and ECIS Zθ systems, cells were monitored at 62.5, 125, 250, 500, 1,000, 2,000, 4,000, 8,000, 16,000, 32,000 and 64,000 Hz. The adhesion was analysed by the integrated Rb modelling method.
# [2] = test system: HaCaT cells; assay: ECIS wounding (migration) assay, HaCaT keratinocytes; type: cell-based, human; conditions: over a range of concentrations
# Experimental: as §1
# Using the ECIS Theta96 model, we tested the response of cells to stibugluconate over a range of concentrations. HaCaT cells responded over the range of concentrations tested in that there was an increase in cell adhesion between 0.16-20 uM with 20 uM showing the maximum effects, FIGS. 5 & 6. Likewise, the cells also responded to stibogluconate by increasing their migration from concentrations as low as 160 nM to 100 uM, FIGS. 7, 8 & 9.
# [3] = In vivo tolerance test in CD-1 athymic; conditions: intraperitoneal, daily, ~10 mg/kg body weight
# Experimental: (§2) The first tolerance test was conducted on the CD-1 athymic (Charles River Laboratories). Briefly, CD-1 of 4-6 weeks old, 20 g in weight, were housed in filter topped cages. Sodium stibogluconate a known PTPRK inhibitor was injected, via the intraperitoneal route, on a daily basis. The compound was given at 100 final concentration (equivalent to ˜10 mg/kg body weight) in 100 ul in volume. CD-1 were observed daily, weighed twice weekly. An additional tolerance and efficacy test was carried out using the db/db strain.
# The first tolerance test was conducted the CD-1 athymic (Charles River Laboratories). Briefly, CD-1 of 4-6 weeks old, 20 g in weight, were housed in filter topped cages. Sodium stibogluconate was injected, via the intraperitoneal route, on a daily basis. The compound was given at 100 final concentration (equivalent to 10 mg/kg body weight) in 100 ul in volume. CD-1 were observed daily, weighed twice weekly. An additional tolerance and efficacy test was carried out using the db/db strain.
# [4] = Tolerance in db/db during wound healing study; type: in vivo, mice; conditions: systemic, every other day, two week period
# Experimental: as §2
# (§3) The diabetic strain of db/db was obtained from Harlan. 4-6 weeks old with body weight at 20 g were used. Creation of a wound was according to a recently described method. Briefly, after being housed for a week, the db/db were first ear-pieced using an puncher, in order to create a wound (hole) of 1 mm in diameter. The following day after wound creation, all the db/db were weighed and the wound was photographed using a digital camera. Treatment was given systemically (by IP injection) or topically (by manually applying the compound in gel into the wound area). Both treatments were given every other day, twice weekly or weekly. Images were obtained weekly. The size of the wounds was determined using an image analysis software and is shown here as the area in pixels.
# Formulation of the Compounds. • 1. For systemic application, Sodium stibogluconate was dissolved in BSS and diluted in the same for the required concentration. The solutions were prepared that each 100 ul contained the correct amount of compounds and was aliquatted and stored as such at −20° C. until used. The compound was injected every other day by the IP route. • 2. For topical application, we used two carrier gels that are currently used in wound care, namely Bactroban and Aquagel. From the concentrated master stock of Sodium stibogluconate, 100 ul of the stock solution was mixed with 2 grams of the respective gels, followed by low speed homogenisation using a hand held homogeniser, for 2 minutes. […]
# [5] = test system: db/db mice; assay: In vivo efficacy test, ear-punch wound healing in diabetic db/db; conditions: for rate of wound healing: 2-100 mg/ml
# Source text: as §3
# Formulation of the Compounds. • 1. For systemic application, Sodium stibogluconate was dissolved in BSS and diluted in the same for the required concentration. The solutions were prepared that each 100 ul contained the correct amount of compounds and was aliquatted and stored as such at −20° C. until used. The compound was injected every other day by the IP route. • 2. For topical application, we used two carrier gels that are currently used in wound care, namely Bactroban and Aquagel. From the concentrated master stock of Sodium stibogluconate, 100 ul of the stock solution was mixed with 2 grams of the respective gels, followed by low speed homogenisation using a hand held homogeniser, for 2 minutes. […] For use, small amount (150 ul) of the gel was applied to the wound area and gently rubbed in using fingers. • 3. […] Sodium stibogluconate increased the rate of wound healing without producing any side effects. • Sodium stibogluconate was given systemically, at 100 uM.
# Using the same db/db mice, we further tested the possible dose response by applying stibogluconate at 2 mg/ml. 20 mg/ml and 100 mg/ml, using topical applications. At the same time, we tested two treatment methods: applying the agent on a weekly basis or twice weekly basis. We determined the size of the wound on a weekly basis. […] Using a Two-way ANOVA (Holm-Sidak model), it was shown that in both treatment regimes, there was a highly significant difference between the treatment group and control group, p=0.013, […] and 0.009, control vs 2 mg/ml, 20 mg/ml and 100 mg respectively, for the twice weekly treatment, and p=0.05, 0.013, 0.009 for the weekly treatment group.
smiles,measurement,setting,value
"O.O.O.O.O.O.O.O.O.O=C([O-])[C@@H]1[O][Sb]2([O-])([O][Sb]34([OH])[O][C@H]([C@H](O)CO)[C@H]([O]3)[C@H](C(=O)[O-])[O]4)[O][C@H]([C@H](O)CO)[C@@H]1[O]2.[Na+].[Na+].[Na+] [stibogluconate, Sodium stibogluconate]",cell adhesion to the surface of the electrode (ECIS),[1]; HECV/WT treated with stibogluconate,rapid adhesion
same,response to stibogluconate of HECV/PTPRKrib cells compared with HECV/WT,"[1]; PTPRK knock-down cells, ECIS adhesion",markedly reduced
same,effect on the migration of the cells (keratinocytes),[2],concentration dependent effect
same,tolerance in vivo,[3],Well Tolerated
same,side effects,[4],did not observe any side effects
same,tolerance,[4],well tolerated
same,weight loss,[4],no weight loss
same,wound size versus control group,"[5]; systemic (IP) at 100 uM, after one week",smaller than the control group
same,"twice weekly versus weekly administration, rate of wound healing",[5]; topical,marginally more effective
same,rate of wound healing,"[5]; topical, twice weekly application",rapid rate of wound healing
same,rate of wound healing,"[5]; topical, weekly application",rapid rate of wound healing
same,effect of interrupting the treatment regimen on healing,"[5]; treatment removed between third and fourth week, weekly or twice weekly regimen",adversely affects the healing process
